Data on 3 compounds can be found in PubChem BioAssay (NCI).

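Growth conditions: 96-well plates. Treatment: test compound, 48 hours, 5 concentrations. Analysis: linear interpolation between bracketing concentrations; unreached endpoints set to highest concentration. Here, GI50 denotes the concentration required for 50% inhibition of growth. TGI: total growth inhibition.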

Test systems include MALME-3M melanoma; M14 melanoma; SN12C renal; HCT-116 colon; SNB-75 CNS; HCT-15 colon; NCI-H460 lung; CCRF-CEM leukemia; OVCAR-5 ovarian; OVCAR-8 ovarian.
Test in all cases: NCI-60 cell line screen, 48 h

With `CO[C@H]1/C=C/C[C@H](C)[C@@H](C)S(=O)(=O)NC(=O)c2ccc3c(c2)N(C[C@@H]2CC[C@H]21)C[C@@]1(CCCc2cc(Cl)ccc21)CO3`, the GI50 with MALME-3M melanoma is 1.97 µM; with M14 melanoma, 2.4 µM; with SN12C renal, 2.37 µM; in the assay with HCT-116 colon it was 2.75 µM; in the assay on SNB-75 CNS, 1.34 µM; in the assay with HCT-15 colon, 2.54 µM. Moreover, the GI50 is 1.99 µM with NCI-H460 lung, 1.3 µM in the assay on CCRF-CEM leukemia, 2.91 µM in the assay on OVCAR-5 ovarian and 3.72 µM in the assay on OVCAR-8 ovarian. Moreover, the TGI in the assay on MALME-3M melanoma was 4.14 µM; with M14 melanoma, 7.31 µM; in the assay with SN12C renal, 6.63 µM; in the assay on HCT-116 colon it was 8.35 µM; in the assay with SNB-75 CNS, 3.03 µM; in the assay on HCT-15 colon, 8.43 µM. The TGI in the assay with NCI-H460 lung is 4.17 µM; in the assay on CCRF-CEM leukemia, 5.03 µM; in the assay with OVCAR-5 ovarian, 11.9 µM; in the assay on OVCAR-8 ovarian, 14.4 µM.

In the case of `COC(=O)C1CCC(N2C(=O)CCC2C(=O)OC)=N1` (stereo not given), the TGI with MALME-3M melanoma, in the assay with M14 melanoma, in the assay on SN12C renal, in the assay on HCT-116 colon, in the assay on SNB-75 CNS and in the assay on HCT-15 colon was over 100 µM in each case. In addition, the TGI in the assay on NCI-H460 lung, in the assay on CCRF-CEM leukemia, in the assay with OVCAR-5 ovarian and with OVCAR-8 ovarian was over 100 µM in each case.

As to `CC(C)(C)n1cc(-c2ccnc(NCCCNS(=O)(=O)c3ccc(Cl)cc3)c2)c(-c2cccc(O)c2)n1`, the GI50 in the assay on MALME-3M melanoma was 1.66 µM; in the assay on M14 melanoma, 1.72 µM; with SN12C renal it was 1.65 µM; with HCT-116 colon it was 1.67 µM; in the assay with SNB-75 CNS, 1.37 µM; with HCT-15 colon, 1.52 µM. Further, the GI50 in the assay with NCI-H460 lung is 1.94 µM; in the assay with CCRF-CEM leukemia it was 2.13 µM; in the assay with OVCAR-5 ovarian, 1.57 µM; in the assay on OVCAR-8 ovarian, 2.22 µM. The TGI was 3.41 µM in the assay on MALME-3M melanoma; 3.45 µM in the assay with M14 melanoma; 3.1 µM in the assay with SN12C renal; 3.22 µM in the assay on HCT-116 colon; 3.03 µM in the assay on SNB-75 CNS; 3.35 µM in the assay on HCT-15 colon. Moreover, the TGI in the assay with NCI-H460 lung worked out at 3.92 µM; in the assay with CCRF-CEM leukemia it was 7.85 µM; in the assay on OVCAR-5 ovarian, 3.19 µM; in the assay on OVCAR-8 ovarian it was 5.81 µM.
